In the supplement of paper PMC10307832:

Tests used:
Assay in all cases: relative viability (nuclei count vs DMSO), 5 days (fraction); higher = more cells survive
[1] = compound: Cn1cncc1[C@@](N)(c1ccc(Cl)cc1)c1ccc2c(c1)c(-c1cccc(Cl)c1)cc(=O)n2C [Tipifarnib] + N=C(N)NC(=N)NCCc1ccccc1 [Phenformin] (partner 250 µM)
Outline: (§1)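 Lung cancer cell lines in 1536-well plates got either a single drug or a fixed anchor-drug dose together with five library-drug doses (not always all listed) in √10 steps, by pin tool, on the day after seeding. Nuclei were counted after 5 days, and relative viability is the treated-to-vehicle ratio of nuclei counts. Values are medians of duplicate plates.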

[2] = compound: Cn1cncc1[C@@](N)(c1ccc(Cl)cc1)c1ccc2c(c1)c(-c1cccc(Cl)c1)cc(=O)n2C [Tipifarnib] + CS(=O)(=O)N1CCN(Cc2cc3nc(-c4cccc5[nH]ncc45)nc(N4CCOCC4)c3s2)CC1 [Pictilisib] (partner 1 µM)
Outline: as §1

[3] = compound: Cn1cncc1[C@@](N)(c1ccc(Cl)cc1)c1ccc2c(c1)c(-c1cccc(Cl)c1)cc(=O)n2C [Tipifarnib] + NC(=O)Nc1cc(-c2cccc(F)c2)sc1C(=O)N[C@H]1CCCNC1 [AZD7762] (partner 0.2 µM)
Outline: as §1

[4] = compound: Cn1cncc1[C@@](N)(c1ccc(Cl)cc1)c1ccc2c(c1)c(-c1cccc(Cl)c1)cc(=O)n2C [Tipifarnib] + Cc1nc(NC(=O)N2CCC[C@H]2C(N)=O)sc1-c1ccnc(C(C)(C)C(F)(F)F)c1 [Alpelisib] (partner 2 µM)
Outline: as §1

Row | Cell Line | relative viability ([1]; first compound 0.01 µM) | relative viability ([1]; first compound 0.03162 µM) | relative viability ([1]; first compound 0.1 µM) | relative viability ([1]; first compound 0.3162 µM) | relative viability ([1]; first compound 1 µM) | relative viability ([2]; first compound 0.01 µM) | relative viability ([2]; first compound 0.03162 µM) | relative viability ([2]; first compound 0.1 µM) | relative viability ([2]; first compound 0.3162 µM) | relative viability ([2]; first compound 1 µM) | relative viability ([3]; first compound 0.01 µM) | relative viability ([3]; first compound 0.03162 µM) | relative viability ([3]; first compound 0.1 µM) | relative viability ([3]; first compound 0.3162 µM) | relative viability ([3]; first compound 1 µM) | relative viability ([4]; first compound 0.01 µM) | relative viability ([4]; first compound 0.03162 µM) | relative viability ([4]; first compound 0.1 µM) | relative viability ([4]; first compound 0.3162 µM) | relative viability ([4]; first compound 1 µM)
1 | 201T | 0.493 | 0.441 | 0.457 | 0.402 | 0.362 | 0.633 | 0.682 | 0.664 | 0.559 | 0.551 | 0.679 | 0.628 | 0.573 | 0.546 | 0.449 | 1.01 | 1.04 | 1.04 | 0.98 | 0.977
2 | A-427 | 0.31 | 0.272 | 0.319 | 0.227 | 0.226 | 0.675 | 0.511 | 0.673 | 0.677 | 0.373 | 0.837 | 0.79 | 0.553 | 0.599 | 0.601 | 1.21 | 1.1 | 1.06 | 1.02 | 0.952
3 | ABC-1 | 0.241 |  | 0.264 | 0.242 | 0.231 | 0.808 |  | 0.623 | 0.583 | 0.492 | 1.04 |  |  | 0.558 | 0.54 | 1.01 |  | 0.869 | 0.721 | 0.822
4 | BEN | 0.294 | 0.272 | 0.273 | 0.255 | 0.262 | 0.543 | 0.587 | 0.543 | 0.472 | 0.417 | 0.738 | 0.659 | 0.629 | 0.663 | 0.528 | 1.14 | 0.915 | 1.06 | 0.811 | 0.769
5 | CAL-12T | 0.533 | 0.414 | 0.379 | 0.378 | 0.231 | 0.388 | 0.329 | 0.384 | 0.414 | 0.32 | 0.635 | 0.549 | 0.62 | 0.408 | 0.425 | 1.33 | 0.851 | 0.555 | 0.417 | 0.693
6 | COR-L23 | 0.469 | 0.351 | 0.361 | 0.305 | 0.238 | 0.816 | 0.509 | 0.458 | 0.383 | 0.298 |  |  |  |  |  | 0.808 | 0.525 | 0.431 | 0.373 | 0.338
7 | COR-L 105 | 0.387 | 0.389 | 0.447 | 0.339 | 0.281 | 0.47 | 0.33 | 0.357 | 0.353 | 0.355 |  |  |  |  |  | 1.12 | 0.891 | 0.731 | 0.46 | 0.649
8 | Calu-6 |  |  |  |  |  | 0.891 | 0.641 | 0.555 | 0.442 | 0.386 |  |  |  |  |  | 0.831 | 0.667 | 0.609 | 0.412 | 0.505
9 | ChaGo-K-1 | 0.451 | 0.518 | 0.464 | 0.412 | 0.273 | 0.694 | 0.8 | 0.71 | 0.618 | 0.542 | 0.904 | 0.936 | 0.931 | 0.745 | 0.411 |  |  |  |  | 
10 | EBC-1 |  |  |  |  |  | 0.313 | 0.199 | 0.198 | 0.183 | 0.242 |  |  |  |  |  | 0.697 | 0.371 | 0.36 | 0.331 | 0.274
11 | EKVX | 0.238 | 0.214 | 0.229 | 0.211 | 0.173 | 0.477 | 0.4 | 0.455 | 0.339 | 0.355 | 0.795 | 0.756 | 0.607 | 0.537 | 0.337 | 0.895 | 0.883 | 0.83 | 0.595 | 0.652
12 | EMC-BAC-2 | 0.501 | 0.437 | 0.459 | 0.485 | 0.357 | 0.573 | 0.509 | 0.467 | 0.525 | 0.366 | 0.981 | 0.952 | 0.944 | 0.822 | 0.536 | 0.741 | 0.665 | 0.684 | 0.651 | 0.566
13 | EPLC-272H | 0.357 | 0.328 | 0.344 | 0.266 | 0.149 | 0.339 | 0.265 | 0.392 | 0.283 | 0.186 | 0.313 | 0.263 | 0.245 | 0.292 | 0.118 | 1.06 | 0.823 | 0.951 | 0.613 | 0.46
14 | H3255 | 0.376 | 0.436 | 0.395 | 0.344 | 0.353 | 0.565 | 0.449 | 0.416 | 0.375 | 0.395 | 1.04 | 0.918 | 0.736 | 0.559 | 0.514 | 0.759 | 0.734 | 0.627 | 0.482 | 0.497
15 | HARA | 0.52 | 0.494 | 0.501 | 0.412 | 0.156 | 0.403 | 0.373 | 0.313 | 0.362 | 0.148 | 0.239 | 0.426 | 0.283 | 0.297 | 0.166 | 0.924 | 0.792 | 0.781 | 0.662 | 0.653
16 | HCC-15 | 0.407 | 0.392 | 0.368 | 0.338 | 0.223 | 0.629 | 0.547 | 0.556 | 0.426 | 0.224 | 1.12 | 0.998 | 0.758 | 0.799 | 0.236 | 0.827 | 0.646 | 0.584 | 0.451 | 0.367
17 | HCC-44 | 0.214 | 0.107 | 0.166 | 0.18 | 0.109 | 0.667 | 0.619 | 0.451 | 0.262 | 0.363 | 0.943 | 0.979 | 0.959 | 0.899 | 0.837 | 0.742 | 0.747 | 0.62 | 0.615 | 0.58
18 | HCC-78 | 0.699 | 0.756 | 0.611 | 0.558 | 0.423 | 0.19 | 0.24 | 0.191 | 0.2 | 0.176 | 0.772 | 0.811 | 0.483 | 0.511 | 0.415 | 0.41 | 0.314 | 0.317 | 0.271 | 0.292
